Patent publication US20060063736A1, “Compositions and methods for inhibiting mucin-type O-linked glycosylation” (priority 2004, published 2006)
“And” between values parts separate entries of the source, which are not always exact repeats. Equal entries are not always repeated. No end group written: not given here.

Assays:
mppGalNAcT-1 = molecular target: T1, mppGalNAcT-1 (Mus musculus, UniProt O08912); experiment: ELLA for ppGalNAcTs, mppGalNAcT-1; format: biochemical, murine; conditions: mppGalNAcT-1, ELLA validation
T1 construct: plasmids encoding truncated secreted ppGalNAcTs-1 to −5, -7, -10 and -11; made in house; host or cells: COS-7
T1 sequence (O08912 29-559 limits assumed): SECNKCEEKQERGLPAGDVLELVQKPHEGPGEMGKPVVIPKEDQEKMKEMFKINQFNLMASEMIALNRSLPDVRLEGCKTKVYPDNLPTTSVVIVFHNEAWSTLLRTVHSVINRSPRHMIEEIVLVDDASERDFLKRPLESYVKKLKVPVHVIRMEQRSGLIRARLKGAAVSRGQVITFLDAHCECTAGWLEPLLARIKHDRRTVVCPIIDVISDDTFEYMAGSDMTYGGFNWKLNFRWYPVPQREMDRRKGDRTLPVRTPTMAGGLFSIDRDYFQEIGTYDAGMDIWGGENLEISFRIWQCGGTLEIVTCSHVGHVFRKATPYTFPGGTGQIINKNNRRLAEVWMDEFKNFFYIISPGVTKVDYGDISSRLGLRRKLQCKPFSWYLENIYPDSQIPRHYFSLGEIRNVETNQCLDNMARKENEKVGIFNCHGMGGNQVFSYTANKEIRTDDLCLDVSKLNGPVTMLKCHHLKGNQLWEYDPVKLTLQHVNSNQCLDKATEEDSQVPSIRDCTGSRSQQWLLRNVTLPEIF
Protocol: COS-7 cells were transiently transfected with plasmids encoding truncated secreted ppGalNAcTs-1 to −5, -7, -10 and -11 as previously described. Hagen et al. (1997) J. Biol. Chem. 272:13843-13848. The crude conditioned medium was used as the enzyme source.
Standard reaction conditions for ppGalNAcT assays were as follows. The reaction mixture contained the following components in a final volume of 25 μL: 10 mM MnCl2, 40 mM sodium cacodylate, 40 mM β-mercaptoethanol, 0.1% Triton X-100, pH 6.5, 5 μL of conditioned media, and various concentrations of EA2 peptide 4, UDP-GalNAc and inhibitor. All uridine-based compounds were dissolved in dimethyl sulfoxide (DMSO). The concentration of DMSO in the reaction mixture was limited to 2% (v/v), as higher concentrations decreased ppGalNAcT activity. For inhibitor assays, reaction mixtures for positive controls also contained 2% DMSO. Unless otherwise stated, inhibitor assays were performed using 20 μM UDP-GalNAc and 50 μM EA2 peptide 4, the KM values for both substrates. Reactions were incubated at 37° C. and were terminated by the addition of 10 μL of 0.1 M EDTA. All experiments were performed in duplicate. Reaction rates were linear over the period monitored (20-30 min).
96-Well NeutrAvidin-coated plates were prewashed 3 times with 200 μL of wash buffer (25 mM Tris, 150 mM NaCl, 0.1% bovine serum albumin (BSA) (w/v), and 0.05% Tween (v/v), pH 7.2). Reactions were then transferred to the 96-well plates, incubated for 1 hour at room temperature (rt) and subsequently washed 3 times with 200 μL of phosphate-buffered saline (PBS) containing 0.5% BSA and 0.05% Tween, pH 7.1. A 100-μL solution of HPA-HRP in standard PBS buffer (1 μg/mL, pH 7.4) was added and the reaction was incubated for 1 h at rt. After 3 washes with 200 μL of PBS, bound HPA-HRP was quantified by the addition of 100 μL of TMB peroxide solution. The solutions were incubated for 5-15 min in the dark at rt. HRP activity was terminated by the addition of 50 μL of 2 N H2SO4 and the resulting solution was analyzed at 450 nm using a UV/Vis microtiter plate reader. The amount of product generated by the ppGalNAcT was extrapolated from absorbance values using an equation fit to the standard curve derived from Origin 6.1 software.
In order to screen the library in high-throughput format, a non-radioactive enzyme linked lectin assay (ELLA) for ppGalNAcTs was developed. As an acceptor substrate, the EA2 peptide (PTTDSTTPAPTTK; SEQ ID NO:12), a fragment of rat submandibular mucin, was chosen. Albone et al. (1994) J. Biol. Chem. 269:16845-16852. This peptide has been previously shown to be an efficient substrate for murine (m) ppGalNAcT-1 and is preferentially glycosylated at the fourth Thr residue from the N-terminus (underlined). Ten Hagen et al. (2001, supra). Biotinylation of EA2 allowed capture of (glyco)peptides onto 96-well NeutrAvidin-coated plates. The GalNAc-modified glycopeptide product could be detected using the α-GalNAc-specific lectin Helix pomatia agglutinin (HPA) (Hammarstrom et al. (1977) Biochemistry 16:2750-2755) conjugated to horseradish peroxidase (HRP). The bound HRP was quantified by addition of a chromogenic substrate.

Jurkat cells [1] = experiment: Con A staining of N-linked glycans on Jurkat cells, flow cytometry; format: cell-based, human; conditions: 2 d treatment
Protocol: (§1) Jurkat cells were seeded at 250,000 cells/well (determined by Coulter cell counter) in 12-well polystyrene tissue culture plates in 1.0 mL of media and treated with various concentrations of 1-68A or 2-68A from 50 mM dimethyl sulfoxide (DMSO) stock solutions or doxorubicin or campothecin from 1 mM DMSO stock solutions. After 2 d, cells were harvested, washed twice with PBS buffer (PBS, pH 7.4, 0.1% FCS, 0.1% NaN3 w/v) and stained with FITC-HPA (1 μg/mL) or FITC-Con A (5 μg/mL with 1 mM CaCl2) in PBS, pH 7.4 in the dark for 1 h at 4° C. Cells were washed twice with PBS buffer, resuspended in 300 μL of PBS buffer and analyzed by flow cytometry (FacsCaliber, BD Instruments). Annexin-V staining was performed according to the manufacturer's protocols (Invitrogen).
(§2) To directly monitor ppGalNAcT activities in cells, Jurkat cells (human T-cell lymphoma), which are known to produce only the Tn-antigen (FIG. 1) as their O-linked glycans, were chosen. Piller et al. (1990) J. Biol. Chem. 265:9264-9271. Changes in Tn-antigen expression on the surface of Jurkat cells were monitored by HPA binding followed by flow cytometry analysis. Con A staining of N-linked glycans was used as a control for non-specific inhibition of protein glycosylation. Baenziger and Fiete (1979) J. Biol. Chem. 254:2400-2407.

Jurkat cells [2] = experiment: HPA staining of Jurkat cells (Tn-antigen), flow cytometry; format: cell-based, human; conditions: Jurkat cells, 2 d treatment
Protocol: as §1, §2

Jurkat cells [3] = experiment: Annexin-V staining of Jurkat cells (apoptosis); format: cell-based, human; conditions: 2 d treatment
Protocol: as §1, §2

[4] = molecular target: C-terminal biotinylated EA2* glycopeptide 5 (…; SEQ ID NO:17) (rat); experiment: enzyme-linked lectin assay (ELLA): 15% glycopeptide 5 (9 pmol) on NeutrAvidin plates, detected with HPA-HRP
[5] = molecular target: T2, C-terminal biotinylated EA2 peptide 4 (PTTKDSTTPAPTTKK; SEQ ID NO:16)
T2 chain: PTTKDSTTPAPTTKK

O=c1ccn([C@@H]2O[C@H](COP(=O)(O)OP(=O)(O)O)[C@@H](O)[C@H]2O)c(=O)[nH]1 [UDP, reference compound]
Ki (mppGalNAcT-1; read-out: KI value for the product UDP): 251 µM and 250 µM

CC[C@@]1(O)C(=O)OCc2c1cc1n(c2=O)Cc2cc3ccccc3nc2-1 [campothecin, reference compound]
effect on Con A staining (Jurkat cells [1]): reduced | effect on HPA staining (Jurkat cells [2]): reduced | Annexin-V staining (induction of apoptosis) (Jurkat cells [3]): induced Annexin V binding at levels comparable to 1-68A

COc1cccc2c1C(=O)c1c(O)c3c(c(O)c1C2=O)C[C@@](O)(C(=O)CO)C[C@@H]3O[C@H]1C[C@H](N)[C@H](O)[C@H](C)O1 [doxorubicin, reference compound]
effect on Con A staining (Jurkat cells [1]): reduced | effect on HPA staining (Jurkat cells [2]): reduced | Annexin-V staining (induction of apoptosis) (Jurkat cells [3]): induced Annexin V binding at levels comparable to 1-68A

EA2 peptide 4: C-terminal biotinylated EA2 peptide (PTTKDSTTPAPTTKK; SEQ ID NO:16), fragment of rat submandibular mucin, acceptor substrate (PTTKDSTTPAPTTKK-biotin) [reference compound]
Km (mppGalNAcT-1): 48 ± 4 µM

Helix pomatia agglutinin (HPA) conjugated to horse radish peroxidase (HPA-HRP)
signal to noise ratio (fold above background) [4]: 30

uridine diphosphate N-acetyl-α-galactosamine [UDP-GalNAc, reference compound]
Km (mppGalNAcT-1): 13.9 µM and 14 µM

B1: murine polypeptide N-acetyl-α-galactosaminyltransferase-1 (mppGalNAcT-1) (protein)
chain: GLPAGDVLELVQKPHEGPGEMGKPVVIPKEDQEKMKEMFKINQFNLMASEMIALNRSLPDVRLEGCKTKVYPDNLPTTSVVIVFHNEAWSTLLRTVHSVINRSPRHMIEEIVLVDDASERDFLKRPLESYVKKLKVPVHVIRMEQRSGLIRARLKGAAVSRGQVITFLDAHCECTAGWLEPLLARIKHDRRTVVCPIIDVISDDTFEYMAGSDMTYGGFNWKLNFRWYPVPQREMDRRKGDRTLPVRTPTMAGGLFSIDRDYFQEIGTYDAGMDIWGGENLEISFRIWQCGGTLEIVTCSHVGHVFRKATPYTFPGGTGQIINKNNRRLAEVWMDEFKNFFYIISPGVTKVDYGDISSRLGLRRKLQCKPFSWYLENIYPDSQIPRHYFSLGEIRNVETNQCLDNMARKENEKVGIFNCHGMGGNQVFSYTANKEIRTDDLCLDVSKLNGPVTMLKCHHLKGNQLWEYDPVKLTLQHVNSNQCLDKATEEDSQVPSIRDCTGSRSQQWLLRNVTLPEIF
KM (ELLA enzyme kinetics) [5]: 48.0 ± 4.0 µM
